{"source": "patent US7608642B2", "about": "“Wound and skin care compositions” (Kimberly-Clark Worldwide, Inc., priority 2002, dated 2009)", "key": {"[1]": {"system": "human skin keratinocyte cell line (normal human epidermal keratinocytes, neonatal)", "assay": "Proliferation of human skin keratinocytes (Cell Titer 96, absorbance 490 nm)", "assay_type": "cell-based", "settings": "for Mean optical density (OD) at 490 nm, cell proliferation / Median optical density (OD) at 490 nm, cell proliferation: 48 hours, KBM, n=5", "experimental": "In addition, 100 μl of vehicle KBM was added to 5 wells as control. […] The spectrophotometric absorbance of each well was read at 490 nm."}, "[2]": {"system": "collagen production in the human skin fibroblast cell line", "assay": "Collagen production in human skin fibroblasts (Takara EIA kit MK101, absorbance 450 nm)", "assay_type": "cell-based", "settings": "for Mean optical density (OD) at 450 nm, collagen production / Median optical density (OD) at 450 nm, collagen production: 48 hours, n=2", "experimental": "The cells were first grown in a 96-well assay system using Dulbecco's Modified Eagle's Medium (DMEM) with 10% fetal bovine serum (FBS) both purchased from Sigma Chemical Co, St. Louis, Mo. Serum-free DMEM was used as a control.\nThe assay was done by using the recommended 20 ul of the supernatant from each well of the 96-well plate. Standard buffer and stop solutions were freshly prepared before running the assay. 100 ul of antibody-POD conjugate solution (supplied with the kit) was added into the wells using pre antibody coated 96 well plate (supplied with the kit). 20 ul of standard and test solutions (from the other 96-well plate containing fibroblasts) were added to appropriate wells. Plate was mixed gently, sealed and incubated for three hrs. at 37° C.\nAfter incubation each well was washed carefully four times with PBS buffer (400 ul). All the wells were completely emptied at the end of washing from any liquid.\n100 ul of substrate solution (hydrogen peroxide and tetramethylbenzidine in a buffer solution, supplied with the kit) was added to each well and the plate was incubated for 15 minutes. At this point 100 ul of stop solution (freshly prepared 1N H2SO4) was added to each well in the same order as substrate. The plate was gently mixed and absorbance was read at 450 nm."}, "[3]": {"system": "fibronectin production in the human skin fibroblast cell line", "assay": "Fibronectin production in human skin fibroblasts (Takara EIA kit MK115, absorbance 450 nm)", "assay_type": "cell-based", "settings": "for Mean optical density (OD) at 450 nm, fibronectin production / Median optical density (OD) at 450 nm, fibronectin production: 48 hours, n=2", "experimental": "The cells were first grown in a 96-well assay system using Dulbecco's Modified Eagle's Medium (DMEM) with 10% fetal bovine serum (FBS) both purchased from Sigma Chemical Co, St. Louis, Mo. Serum-free DMEM was used as a control. […] The fibronectin assay was performed using the recommended 100 μl of the supernatant from each well of the 96-well plate. Standard buffer and stop solutions were freshly prepared before running the assay. A pre-antibody-coated 96 well plate (provided with the kit) was used to transfer the test samples and control. The plate was mixed, sealed and incubated for 1 hour at 37° C. All the wells were washed after removing sample solutions, 3 times (300 μl) with washing buffer. 100 ul of antibody-POD conjugate solution was added into the wells. Plate was mixed, sealed and incubated for one hour at 37° C. Solutions were removed and the wells were washed 3 times with washing buffer. All the wells were completely emptied at the end of washing from any liquid. 100 μl of substrate solution (hydrogen peroxide and tetramethylbenzidine in a buffered solution) was added to each well and the plate was incubated at room temperature for 15 minutes. 100 μl of stop solution (freshly prepared 1N H2SO4) was added to each well in the same order as substrate. The plate was gently mixed and absorbance was read at 450 nm."}, "Swiss Albino mice": {"system": "Swiss Albino mice", "assay": "Wound healing, full thickness skin wounds (3 mm biopsy punch) in mice", "assay_type": "in vivo, mouse", "experimental": "Twenty, 12-week old Swiss Albino mice were anesthetized with a ketamine/acepromazine cocktail and subjected to four full thickness skin wounds on the dorsolateral surface. […] Jasmonic acid (100 mg) was dissolved in 2 ml ethanol. 200 μl of the resulting solution was then added to 4.8 ml of WFI. Four wounds were made on either side of the spinal column using a 3 mm biopsy punch. To make the wounds, the skin was first tented and the punch was driven through the tented skin to generate both wounds with a single stroke. The upper left quadrant wound site of the animal was assigned to receive the control solution (WFI). […] The wound sites were dosed 5 times (twice on Day 0, Day 1, and once on Day 2). All wounds were treated with 5 μl of test or control solutions. Wounds were allowed to absorb the solutions for 5 minutes before returning the animals to their cages for recovery. All the animals were housed singly. The in-life phase for the animals is 5 days. Each day the wounds on the mice were traced onto glass slides and measured using calipers accurate to the nearest 0.1 mm. Photographs of the wounds were also taken daily for the duration of the study to measure wound size. Means and the standard deviations of the wound diameters for each day were calculated for the healing profile. The effects of the test substances on wound healing were compared to the effects of the control (WFI)."}, "[4]": {"system": "healthy female volunteers", "assay": "Dansyl chloride cell renewal study (stratum corneum renewal time)", "assay_type": "in vivo, human", "description": "The stratum corneum renewal time is the time taken for the whole thickness of the stratum corneum to be exfoliated and replaced by new cells from the dividing epidermis. This renewal time is a fundamental indicator of skin health. […] See Jansen L H, Hojyo-Tomoko M T, Kligman A M., Improved fluorescence staining technique for estimating turnover of the human stratum corneum, Br J Dermatol., 90, 9-12, 1974; Ridge B D, Batt M D, Palmer H E, Jarrett A, The dansyl chloride technique for stratum corneum renewal as an indicator of changes in epidermal mitotic activity following topical treatment., Br J Dermatol., 118, 167-74, 1988; Grove G L, Kligman A M, Age-associated changes in human epidermal cell renewal., J Geron., 38, 137-142, 1983. The time required for the dye to disappear is therefore an indication of the turnover time of the stratum corneum. Therefore, any differences in the time required for the dye to disappear from treated and non-treated sites can be considered to be an expression of that product's ability to enhance epidermal renewal.\nA dansyl chloride cell renewal study was conducted in healthy female volunteers ranging from 43-64 years of age. The study consisted of a two-week treatment period during which time the products were applied topically twice daily, including on weekend days, to the test sites. The area of application was designated, approximately 5 cm×10 cm on the upper inner arm. The other arm served as a control with no product application. […] Eight females received jasmonic acid and seven females received gibberellic acid.\nThe time required for a marker dye to disappear was used as the measure of cell renewal rate."}, "[5]": {"settings": "1×10^−4 M to 1×10^−6 M vs control"}}, "note": "“And” between values parts separate entries of the source, which are not always exact repeats. Identical values can stand only once. “Also recorded” adds a separate entry of the source."}
{"smiles": "CC/C=C\\C[C@H]1C(=O)CC[C@@H]1CC(=O)O", "note": "[jasmonic acid]", "values": [{"measurement": "Cell proliferating activity on human keratinocytes (in words)", "setting": "[1]; [5]", "result": "strong cell proliferating activity especially at the lower concentrations; also recorded: all concentrations of jasmonic acid had an effect on cell growth"}, {"measurement": "Mean optical density (OD) at 490 nm, cell proliferation", "setting": "[1]; 1×10^−4 M", "result": 0.5732}, {"measurement": "Median optical density (OD) at 490 nm, cell proliferation", "setting": "[1]; 1×10^−4 M", "result": 0.5860}, {"measurement": "Mean optical density (OD) at 490 nm, cell proliferation", "setting": "[1]; 1×10^−5 M", "result": 0.7628}, {"measurement": "Median optical density (OD) at 490 nm, cell proliferation", "setting": "[1]; 1×10^−5 M", "result": 0.7750}, {"measurement": "Mean optical density (OD) at 490 nm, cell proliferation", "setting": "[1]; 1×10^−6 M", "result": 0.7734}, {"measurement": "Median optical density (OD) at 490 nm, cell proliferation", "setting": "[1]; 1×10^−6 M", "result": 0.7970}, {"measurement": "Stimulation of collagen production (in words)", "setting": "[2]; [5]", "result": "strongly stimulated collagen production at higher concentrations; also recorded: Higher concentrations of jasmonic acid and medium concentrations of zeatin also stimulated collagen production"}, {"measurement": "Mean optical density (OD) at 450 nm, collagen production", "setting": "[2]; 1×10^−4 M", "result": 0.8040}, {"measurement": "Median optical density (OD) at 450 nm, collagen production", "setting": "[2]; 1×10^−4 M", "result": 0.8040}, {"measurement": "Mean optical density (OD) at 450 nm, collagen production", "setting": "[2]; 1×10^−5 M", "result": 0.7895}, {"measurement": "Median optical density (OD) at 450 nm, collagen production", "setting": "[2]; 1×10^−5 M", "result": 0.7895}, {"measurement": "Mean optical density (OD) at 450 nm, collagen production", "setting": "[2]; 1×10^−6 M", "result": 0.7475}, {"measurement": "Median optical density (OD) at 450 nm, collagen production", "setting": "[2]; 1×10^−6 M", "result": 0.7475}, {"measurement": "Stimulation of fibronectin production (in words)", "setting": "[3]; [5]", "result": "effective for stimulating fibronectin production in human fibroblasts; also recorded: all compounds stimulated fibronectin production"}, {"measurement": "Mean optical density (OD) at 450 nm, fibronectin production", "setting": "[3]; 1×10^−4 M", "result": 0.2060}, {"measurement": "Median optical density (OD) at 450 nm, fibronectin production", "setting": "[3]; 1×10^−4 M", "result": 0.2060}, {"measurement": "Mean optical density (OD) at 450 nm, fibronectin production", "setting": "[3]; 1×10^−5 M", "result": 0.2025}, {"measurement": "Median optical density (OD) at 450 nm, fibronectin production", "setting": "[3]; 1×10^−5 M", "result": 0.2025}, {"measurement": "Mean optical density (OD) at 450 nm, fibronectin production", "setting": "[3]; 1×10^−6 M", "result": 0.1955}, {"measurement": "Median optical density (OD) at 450 nm, fibronectin production", "setting": "[3]; 1×10^−6 M", "result": 0.1955}, {"measurement": "Time control-treated wounds required to close to the same extent achieved in jasmonic acid-treated wounds on day 1", "setting": "Swiss Albino mice; topical 0.2% solution vs control (WFI)", "result": "over 2.5 days"}, {"measurement": "Effect on wound closure / wound healing (in words)", "setting": "Swiss Albino mice; topical 5 μl of 0.2% solution, 5 doses Day 0-2, vs control (WFI)", "result": "significantly accelerated the rate of wound healing; also recorded: experienced slower wound closure than mice receiving a 0.2% solution of jasmonic acid"}, {"measurement": "Time for cell renewal, treated skin (RENEWAL)", "setting": "[4]; 0.25% in hyaluronic acid (0.5% aqueous solution), topical twice daily for two weeks, upper inner arm, individual patients, listed as JA", "result": "12 Days (2×) and 16 Days and 15 Days (2×) and 17 Days and 14 Days and 11 Days"}, {"measurement": "Skin irritation or redness", "setting": "[4]; in vivo", "result": "no visible sign of any skin irritation or redness"}]}
